From PubChem BioAssay (NCI)
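GI50: concentration for 50% inhibition of growth. TGI marks complete inhibition of growth.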

Legend:
Assay in all cases: NCI anticancer screen, dose series, 384-well format
NCI/ADR-RES ovarian = tested on: NCI/ADR-RES ovarian
SF-268 CNS = tested on: SF-268 CNS
EKVX NSCLC = tested on: EKVX NSCLC
NCI-H522 lung = tested on: NCI-H522 lung
SNB-19 CNS = tested on: SNB-19 CNS
SK-MEL-28 melanoma = tested on: SK-MEL-28 melanoma
MCF7 breast = tested on: MCF7 breast
CAKI-1 renal = tested on: CAKI-1 renal
NCI-H322M lung = tested on: NCI-H322M lung
SK-MEL-5 melanoma = tested on: SK-MEL-5 melanoma
ACHN renal = tested on: ACHN renal
NCI-H23 lung = tested on: NCI-H23 lung
U251 glioblastoma = tested on: U251 glioblastoma
RXF 393 renal = tested on: RXF 393 renal
SR leukemia = tested on: SR leukemia
SNB-75 CNS = tested on: SNB-75 CNS
HL-60(TB) leukemia = tested on: HL-60(TB) leukemia
SF-539 CNS = tested on: SF-539 CNS
HT29 colon = tested on: HT29 colon
OVCAR-3 ovarian = tested on: OVCAR-3 ovarian
MOLT-4 leukemia = tested on: MOLT-4 leukemia
MALME-3M melanoma = tested on: MALME-3M melanoma
HOP-62 NSCLC = tested on: HOP-62 NSCLC
HCT-15 colon = tested on: HCT-15 colon
A549 NSCLC = tested on: A549 NSCLC
MDA-MB-468 breast = tested on: MDA-MB-468 breast
BT-549 breast = tested on: BT-549 breast
A498 renal = tested on: A498 renal
DU-145 prostate = tested on: DU-145 prostate

Cn1cc(-c2cnc3ccc4ccc(CS(=O)(=O)NCc5ccccn5)cc4c(=O)c3c2)cn1
GI50 (NCI/ADR-RES ovarian): 16.2 µM
TGI (NCI/ADR-RES ovarian): 37.4 µM
GI50 (SF-268 CNS): 18.4 µM
TGI (SF-268 CNS): 38.6 µM
GI50 (EKVX NSCLC): 17.9 µM
TGI (EKVX NSCLC): 35.7 µM
GI50 (NCI-H522 lung): 13.1 µM
TGI (NCI-H522 lung): 25.9 µM
GI50 (SNB-19 CNS): 20.8 µM
TGI (SNB-19 CNS): 53.1 µM
GI50 (SK-MEL-28 melanoma): 17 µM
TGI (SK-MEL-28 melanoma): 32 µM
GI50 (MCF7 breast): 10 µM
TGI (MCF7 breast): 26.9 µM
GI50 (CAKI-1 renal): 32.7 µM
TGI (CAKI-1 renal): > 100 µM
GI50 (NCI-H322M lung): 21.3 µM
TGI (NCI-H322M lung): 64.6 µM
GI50 (SK-MEL-5 melanoma): 8.26 µM
TGI (SK-MEL-5 melanoma): 20.8 µM
GI50 (ACHN renal): 24.7 µM
TGI (ACHN renal): 98.4 µM
GI50 (NCI-H23 lung): 11.6 µM
TGI (NCI-H23 lung): 24.5 µM
GI50 (U251 glioblastoma): 21.2 µM
TGI (U251 glioblastoma): 65.3 µM
GI50 (RXF 393 renal): 13.5 µM
TGI (RXF 393 renal): 26.8 µM
GI50 (SR leukemia): 1.91 µM
TGI (SR leukemia): 4.24 µM
GI50 (SNB-75 CNS): 15.9 µM
TGI (SNB-75 CNS): 30.2 µM
GI50 (HL-60(TB) leukemia): 13.2 µM
TGI (HL-60(TB) leukemia): 26 µM
GI50 (SF-539 CNS): 15.3 µM
TGI (SF-539 CNS): 28.9 µM
GI50 (HT29 colon): 15.4 µM
TGI (HT29 colon): 32.7 µM
GI50 (OVCAR-3 ovarian): 14 µM
TGI (OVCAR-3 ovarian): 28.1 µM
GI50 (MOLT-4 leukemia): 3.23 µM
TGI (MOLT-4 leukemia): 10.6 µM
GI50 (MALME-3M melanoma): 12.3 µM
TGI (MALME-3M melanoma): 25.4 µM
GI50 (HOP-62 NSCLC): 13 µM
TGI (HOP-62 NSCLC): 27.8 µM
GI50 (HCT-15 colon): 4.28 µM
TGI (HCT-15 colon): 14.7 µM
GI50 (A549 NSCLC): 40.4 µM
TGI (A549 NSCLC): > 100 µM
GI50 (MDA-MB-468 breast): 2.79 µM
TGI (MDA-MB-468 breast): 7.05 µM
GI50 (BT-549 breast): 14.9 µM
TGI (BT-549 breast): 30.8 µM
GI50 (A498 renal): 23.1 µM
TGI (A498 renal): > 100 µM
GI50 (DU-145 prostate): 20 µM
TGI (DU-145 prostate): 51.2 µM
